Like-named read-outs stand apart in the source and are kept apart here.
Assays:
[1] = ester bond, 2,4,6-trichlorobenzoyl chloride / Et3N / DMAP, toluene, 25.0 °C, 16.0 h
[2] = tested on: tubulin; type: biochemical, bovine; settings: for MT stabilizing activity (%): tubulin assembly induced by test agent at 10 μM vs. 10 μM paclitaxel (100%), single determinations at 30° C.; for properties of the induced polymer: speed of induction, resistance to cold-induced disassembly (in words): FIGS. 6A, 6C, 6D, analogs at somewhat lower potencies than discodermolide; for microtubule hypernucleation activity (in words): comparison with analog 40, FIGS. 6A-D and Table 1
Description: (§1) General. Tubulin without microtubule-associated proteins was prepared from fresh bovine brains[32] The normoisotopic and tritiated forms of paclitaxel and normoisotopic docetaxel were provided by the Drug Synthesis and Chemistry Branch, National Cancer Institute. (+)-Discodermolide was from Novartis Pharmaceutical Corporation. Ca^2+- and Mg^2+-free RPMI-1640 culture medium were from GIBCO/BRL-Life Technologies. Fetal bovine serum (FBS) was from Hyclone. Cell lines were obtained from American Type Culture Collection (Manassas, Va.).
Tubulin Polymerization[32] Tubulin assembly was followed in a Beckman-Coulter 7400 spectrophotometer, equipped with an electronic Peltier temperature controller, reading absorbance (turbidity) at 350 nm. Reaction mixtures (0.25 mL final volume) contained tubulin (final concentration 10 μM; 1 mg/mL), monosodium glutamate (0.8 M from a stock solution adjusted to pH 6.6 with HCl), DMSO (final volume 4% v/v), and differing concentrations of test agent where indicated. Reaction mixtures without test agent were cooled to 0° C. and added to cuvettes held at 0.25-0.5° C. in the spectrophotometer. Test agent in DMSO was then rapidly mixed in the reaction mixture. Each run contained one positive control (paclitaxel, 10 μM final concentration) and one negative control (DMSO only). Baselines were established at 0.25-2.5° C. and temperature was rapidly raised to 30° C. (in approximately 1 min) and held there for 20 min.

[3] = tested on: MDA-MB231 (breast); assay: Cell growth inhibition (MTS), MDA-MB231; type: cell-based, human
Description: (§2) Cell Growth Inhibition[34] Cells were plated (500-2000 cells/well depending on the cell line) in 96-well microplates, allowed to attach and grow for 48 h, then treated with vehicle (4% DMSO, a concentration that allowed doubling times of 24 h or less) or test agent (50, 10, 2, 0.4 and 0.08 μM for the new agents; 0.001, 0.005, 0.010, 0.020 and 0.100 μM for paclitaxel and discodermolide) for the given times. One plate consisted of cells from each line used for a time zero cell number determination. The other plates in a given determination contained eight wells of control cells, eight wells of medium and each agent concentration tested in quadruplicate. Cell numbers were obtained spectrophotometrically (absorbance at 490 nm minus that at 630 nm) in a Dynamax plate reader after treatment with 3-(4,5-dimethylthiazol-2-yl)-5-(3-carboxymethoxyphenyl)-2-(4-sulfophenyl)-2H-tetrazolium (MTS) using phenazine methanesulfonate as the electron acceptor. After initial screening with the above 5-fold dilutions, fifty percent growth inhibitory concentration (GI50) values were determined for each agent by repeating the screen using 2-fold dilutions (five concentrations) centered on the initial estimated GI50 concentration, again in quadruplicate.

[4] = tested on: PC3 (prostate); assay: Cell growth inhibition (MTS), PC3; type: cell-based; settings: Homo sapiens, 72 h, read-out: GI50 PC3 (prostate)
Description: as §2

[5] = tested on: 2008 (ovarian); assay: Cell growth inhibition (MTS), 2008; type: cell-based, human
Description: as §2

[6] = tested on: paclitaxel binding site on tubulin; assay: Paclitaxel binding site inhibition assay ([3H]paclitaxel displacement from microtubules); design: species or system bovine; settings: for Displacement of [3H]paclitaxel (%): 4 μM test agent, 2 μM [3H]paclitaxel, microtubules from 2 μM tubulin and 20 μM dideoxyGTP
Description: as §1
Paclitaxel binding site inhibition assay. A stock solution of [^3H]paclitaxel (26.8 μM, 16.2 Ci/mmol), obtained from the NCI, was prepared in 37% (v/v) DMSO. The test agents were prepared in 25% (v/v) DMSO-0.75 M monosodium glutamate (prepared from a 2M stock solution adjusted to pH 6.6 with HCl). The radiolabeled paclitaxel and test agents, as indicated in terms of final concentrations, were mixed in equal volumes and warmed to 37° C. A reaction mixture (50 μL) containing 0.75 M monosodium glutamate, 4.0 μM tubulin, and 40 μM ddGTP (a non-hydrolyzable analog of GTP) was prepared and incubated at 37° C. for 30 min to preform microtubules. An equivalent volume of drug mixture with [^3H]paclitaxel was added to preformed polymer and incubated for 30 min at 37° C. Bound [^3H]paclitaxel was separated from free drug by centrifugation of the reaction mixtures at 14000 rpm for 20 min at room temperature. Non-specific binding was determined by addition of a 12-fold excess of docetaxel. Radioactive counts from the supernatant (50 μL) were determined by scintillation spectrometry. Bound [^3H]paclitaxel was calculated from the following: total paclitaxel added to each reaction mixture minus the paclitaxel present in the supernatant (free drug). The % bound values were normalized to the control values with no inhibitor added.

[7] = Homo sapiens, MDA-MB-231, 48 h, read-out: GI50 MDA-MB-231 (breast)
[8] = Homo sapiens, MDA-MB-231, read-out: 50% growth inhibitory concentration
[9] = Homo sapiens, 48 h, read-out: GI50 2008 (ovary)
[10] = Table 2, applies to both human cancer cell lines, breast (MDA-MB-231) and ovarian (2008), read-out: 50% growth inhibitory concentration

Q: With `C=C/C=C\[C@H](C)[C@@H]1OC(=O)/C=C\C=C\[C@@H](C)[C@@H](O[Si](C)(C)C(C)(C)C)C[C@H](O[Si](C)(C)C(C)(C)C)/C=C\[C@H](C)[C@H](O)[C@@H](C)C[C@@H](C)CCC(O[Si](C)(C)C(C)(C)C)[C@@H]1C` (stereo partly shown) as the compound, how does the ring closure, yield of all isomers ([1]; from C=C/C=C\[C@H](C)[C@H](O)[C@@H](C)C(CC[C@H](C)C[C@H](C)[C@@H](O)[C@@H](C)/C=C\[C@H](C[C@H](O[Si](C)(C)C(C)(C)C)[C@H](C)/C=C/C=C\C(=O)O)O[Si](C)(C)C(C)(C)C)O[Si](C)(C)C(C)(C)C, 1.77 mM, 2 steps) read?
A: 49%

Q: Which ring closure, yield of all isomers ([1]; from C=C/C=C\[C@H](C)[C@@H](O)[C@H](C)[C@@H](CC/C=C\[C@H](C)[C@@H](OCc1ccc(OC)cc1)[C@@H](C)/C=C\CC[C@@H](OCc1ccc(OC)cc1)[C@H](C)/C=C/C=C\C(=O)O)OCc1ccc(OC)cc1, 2 steps) does the source give for `C=C/C=C\[C@H](C)[C@H]1OC(=O)/C=C\C=C\[C@@H](C)[C@H](OCc2ccc(OC)cc2)CC/C=C\[C@H](C)[C@H](OCc2ccc(OC)cc2)[C@@H](C)/C=C\CC[C@@H](OCc2ccc(OC)cc2)[C@H]1C` here?
A: 79%

Q: Which ring closure, yield of all isomers ([1]; from C=C/C=C\[C@H](C)[C@@H](O)[C@H](C)[C@@H](CC/C=C\[C@H](C)[C@@H](OCc1ccc(OC)cc1)[C@@H](C)/C=C\CCCCCCCCC(=O)O)OCc1ccc(OC)cc1, 1.93 mM) does the source give for `C=C/C=C\[C@H](C)[C@H]1OC(=O)CCCCCCCC/C=C\[C@H](C)[C@H](OCc2ccc(OC)cc2)[C@@H](C)/C=C\CC[C@@H](OCc2ccc(OC)cc2)[C@H]1C` here?
A: 57%

Q: Which “MT stabilizing activity (%)” value [2] does the source give for `C=C/C=C\[C@H](C)[C@H](OC(N)=O)[C@@H](C)[C@H](O)CC/C=C\[C@H](C)[C@H](O)[C@@H](C)/C=C\CC[C@@H]1OC(=O)[C@H](C)[C@@H](O)[C@@H]1C` [Compound 40, Carbamic acid, (1S,2S,3R,6Z,8S,9S,10S,11Z)-3,9-dihydroxy-14-[(2S,3S,4S,5R)-4-hydroxy-3,5-dimethyl-6-oxotetrahydropyran-2-yl]-2,8,10-trimethyl-1-[(1S,2Z)-1-methylpenta-2,4-dienyl]tetradeca-6,11-dienyl ester] here?
A: 11%

Q: And the GI50 ([3]; Homo sapiens, MDA-MB-231, 72 h, read-out: GI50 MDA-MB231 (breast))?
A: 2.1 ± 1.8 µM

Q: And the GI50 [4]?
A: 7.5 ± 2 µM

Q: What about the GI50 ([5]; Homo sapiens, 72 h, read-out: GI50 2008 (ovarian)) of the same compound?
A: 5.2 ± 1 µM

Q: What about the “Displacement of [3H]paclitaxel (%)” value [6] of the same compound?
A: 21 ± 1%

Q: Which results are given for `C=C/C=C\[C@H](C)[C@H](OC(N)=O)[C@@H](C)[C@H](O)CC/C=C\[C@H](C)[C@H](O)[C@@H](C)/C=C\CC[C@@H]1OC(=O)[C@H](C)[C@@H](OCOC)[C@H]1C` [Compound 41]?
A: properties of the induced polymer: speed of induction, resistance to cold-induced disassembly (in words) [2]: more rapid polymer-inducing and cold-resistant properties; microtubule hypernucleation activity (in words) [2]: better microtubule hypernucleation activities than the analog 40; MT stabilizing activity (%) [2]: 27%; 50% growth inhibitory (GI50) concentration (in words) ([3]; cellular activity, cell line not given): submicromolar; affinity for the paclitaxel binding site on tubulin (in words) [6]: considerable affinity; Displacement of [3H]paclitaxel (%) [6]: 57 ± 2%; displacement of [3H]paclitaxel from microtubules, comparison (in words) ([6]; 2-fold molar excess of test agent): better than paclitaxel and at almost the same potency as discodermolide

Q: Which “properties of the induced polymer: speed of induction, resistance to cold-induced disassembly (in words)” value [2] does the source give for `C=C/C=C\[C@H](C)[C@H](OC(N)=O)[C@@H](C)[C@H](O)CC/C=C\[C@H](C)[C@H](O)[C@@H](C)/C=C\CC[C@@H]1O[C@@H](OC)[C@H](C)[C@@H](OCOC)[C@H]1C` [Compound 42, Carbamic acid, (1S,2S,3R,6Z,8S,9S,1S,11Z)-3,9-dihydroxy-14-[(2S,3S,4S,5R,6R)-6-methoxy-4-methoxymethoxy-3,5-dimethyltetrahydropyran-2-yl]-2,8,10-trimethyl-1-[(1S,2Z)-1-methylpenta-2,4-dienyl]tetradeca-6,11-dienyl ester] here?
A: more rapid polymer-inducing and cold-resistant properties

Q: And the “microtubule hypernucleation activity (in words)” value [2]?
A: better microtubule hypernucleation activities than the analog 40

Q: What about the “MT stabilizing activity (%)” value [2] of the same compound?
A: 11%

Q: What about the “Displacement of [3H]paclitaxel (%)” value [6] of the same compound?
A: 19 ± 2%

Q: With `C=CC=C[C@H](C)[C@H]1OC(=O)CCCCCCCCC=C[C@H](C)[C@H](O)[C@@H](C)C=CCC[C@@H](O)[C@H]1C` [Compound 43, (1S,13S,14S,15S,20R,21R,22R)-14,20-Dihydroxy-13,15,21-trimethyl-22-(1-methylpenta-2,4-dienyl)-oxacyclodocosa-11,16-dien-2-one] as the compound, how does the GI50 [3, 7] read?
A: 27 ± 1 µM

Q: And the IC50 [3, 8]?
A: 15 to 30 µM

Q: And the GI50 [5, 9]?
A: 16 ± 1 µM

Q: And the “Displacement of [3H]paclitaxel (%)” value ([6]; N = 6, means ± SD)?
A: 18 ± 5%

Q: With `C=CC=C[C@H](C)[C@@H](O)[C@H](C)[C@H](O)CCC=C[C@H](C)[C@@H](O)[C@@H](C)C=CCCCCCCCCCO` [Compound 47, (12S,13S,14S,19R,20R,21R,22S)-12,14,20,22-Tetramethylhexacosa-10,15,23,25-tetraene-1,13,19,21-tetraol] as the compound, how does the GI50 [3, 7] read?
A: 18 ± 1 µM

Q: What about the IC50 [3, 8] of the same compound?
A: 15 to 30 µM

Q: What about the GI50 [5, 9] of the same compound?
A: 22 ± 5 µM

Q: What about the “Displacement of [3H]paclitaxel (%)” value ([6]; N = 6, means ± SD) of the same compound?
A: 21 ± 2%

Q: With `C=CC=C[C@H](C)[C@@H](O)[C@H](C)[C@H](O)CCC=C[C@H](C)[C@@H](O)[C@@H](C)C=CCCCCCCCCC(=O)OC` [Compound 48, (12S,13S,14S,19R,20R,21R,22S)-13,19,21-Trihydroxy-12,14,20,22-tetramethylhexacosa-10,15,23,25-tetraenoic acid methyl ester] as the compound, how does the GI50 [3, 7] read?
A: 26 ± 3 µM

Q: And the IC50 [3, 8]?
A: 15 to 30 µM

Q: And the GI50 [5, 9]?
A: 19 ± 2 µM

Q: And the “Displacement of [3H]paclitaxel (%)” value ([6]; N = 6, means ± SD)?
A: 17 ± 1%

Q: Which results are given for `C=CC=C[C@H](C)[C@@H](O)[C@H](C)[C@H](O)CCC=C[C@H](C)[C@@H](O)[C@@H](C)C=CCCCCCCCCC(=O)O` [Compound 49, (12S,13S,14S,19R,20R,21R,22S)-13,19,21-Trihydroxy-12,14,20,22-tetramethylhexacosa-10,15,23,25-tetraenoic acid]?
A: GI50 ([3]; Homo sapiens, MDA-MB-231, 48 hours continuous exposure, mean ± SD, N = 4, read-out: GI50 MDA-MB-231 (breast)): > 50 µM; IC50 [3, 10]: > 50 µM; GI50 ([5]; Homo sapiens, 48 hours continuous exposure, mean ± SD, N = 4, read-out: GI50 2008 (ovary)): > 50 µM; Displacement of [3H]paclitaxel (%) ([6]; N = 6, means ± SD): 16 ± 3%

Q: Which results are given for `C=CC=CC(C)[C@H]1OC(=O)C=CC=C[C@@H](C)[C@H](O)CCC=C[C@H](C)[C@H](O)[C@@H](C)C=CCC[C@@H](O)[C@H]1C` (stereo partly drawn) [Compound 54, (7R,8R,13S,14S,15S,20R,21R,22R,23S)-8,14,20-Trihydroxy-7,13,15,21-tetramethyl-22-(1-methylpenta-2,4-dienyl)-oxacyclodocosa-3,5,11,16-tetraen-2-one]?
A: GI50 ([3]; 72 hours continuous exposure (footnote b), mean ± SD, N = 4, read-out: GI50 MDA-MB-231 (breast)): 1.4 ± 0.1 µM; IC50 [3, 10]: ~1 µM; GI50 ([5]; 72 hours continuous exposure (footnote b), mean ± SD, N = 4, read-out: GI50 2008 (ovary)): 1 ± 0.1 µM; Displacement of [3H]paclitaxel (%) ([6]; N = 6, means ± SD): 27 ± 8%; potency of [3H]paclitaxel displacement relative to discodermolide ([6]; [3H]paclitaxel stoichiometrically bound to microtubules): about ⅓
